Drawing on patent US8106214B2, “2-imino-4-(thio) oxo-5-polycyclovinylazolines for use as PI3 kinase inhibitors” (Merck Serono SA, priority 2003, dated 2012), this text covers IC50 and inhibition for nine compounds.

One experiment has as its system Class I PI3-kinases. To be noted: cited from earlier work.
The target in experiment [1] is Human recombinant GST-PI3Kγ (Homo sapiens, UniProt P48736). Description: High Throughput PI3K Lipid Kinase Assay (SPA, neomycin-coated beads). The class given is biochemical. The procedure: a) High Throughput PI3K Lipid Kinase Assay (Binding Assay):
The assay combines the scintillation proximity assay technology (SPA, Amersham) with the capacity of neomycin (a polycationic antibiotic) to bind phospholipids with high affinity and specificity. The Scintillation Proximity Assay is based on the properties of weakly emitting isotopes (such as ^3H, ^125I, ^33P). Coating SPA beads with neomycin allows the detection of phosphorylated lipid substrates after incubation with recombinant PI3K and radioactive ATP in the same well, by capturing the radioactive phospholipids to the SPA beads through their specific binding to neomycin.
To a 384 wells MTP containing 5 μl of the test compound of Formula (D) (solubilized in 6% DMSO; to yield a concentration of 100, 30, 10, 3, 1, 0.3, 0.1, 0.03, 0.01, 0.001 μM of the test compound), the following assay components are added. 1) 5 μl (58 ng) of Human recombinant GST-PI3Kγ (in Hepes 40 mM, pH 7.4, DTT 1 mM and ethylenglycol 5%) 2) 10 μl of lipid micelles and 3) 10 μl of Kinase buffer ([^33P]γ-ATP 45 μM/60 nCi, MgCl2 30 mM, DTT 1 mM, β-Glycerophosphate 1 mM, Na3VO4 100 μM, Na Cholate 0.3%, in Hepes 40 mM, pH 7.4). After incubation at room temperature for 180 minutes, with gentle agitation, the reaction is stopped by addition of 60 μl of a solution containing 100 μg of neomycin-coated PVT SPA beads in PBS containing ATP 10 mM and EDTA 5 mM. The assay is further incubated at room temperature for 60 minutes with gentle agitation to allow binding of phospholipids to neomycin-SPA beads. After precipitation of the neomycin-coated PVT SPA beads for 5 minutes at 1500×g, radioactive PtdIns(3)P is quantified by scintillation counting in a Wallac MicroBeta™ plate counter.
The values indicated in respect of PI3Kγ refer to the IC50 (μM), i.e. the amount necessary to achieve 50% inhibition of said target. Said values show a considerable potency of the 2-imino-azolinone-vinyl fused-benzene compounds with regard to PI3Kγ.

Experiment [2] relates to C5a-mediated AKT phosphorylation in Raw 264-7 macrophages. Kind of experiment: Cell based ELISA: Akt/PKB phosphorylation in macrophages after C5a stimulation. To be noted: Mus musculus, RAW264.7, 5 min; compound at 10 μM; Raw 264-7 macrophages stimulated with 50 nM C5a for 5 minutes; read-out: percentage of inhibition of C5a-mediated AKT phosphorylation. The procedure:
b) Cell Based ELISA to Monitor PI3K Inhibition:
Measurement of Akt/PKB phosphorylation in macrophages after stimulation with human recombinant Complement 5a (C5a) from Sigma (C5788): Raw 264: Raw 264-7 macrophages (cultured in DMEM-F12 medium containing 10% Fetal Calf serum and antibiotics) are plated at 20,000 cells/well in a 96 MTP 24 h before cell stimulation. Previous to the stimulation with 50 nM of Complement 5a during 5 minutes, Cells are serum starved for 2 h, and pre-treated with inhibitors for 20 minutes. After stimulation cells are fixed in 4% formaldehyde for 20 minutes and washed 3 times in PBS containing 1% Triton X-100 (PBS/Triton). Endogenous peroxidase is blocked by a 20 minutes incubation in 0.6% H2O2 and 0.1% Sodium Azide in PBS/Triton and washed 3 times in PBS/Triton. Cells are then blocked by 60 minutes incubation with 10% foetal calf serum in PBS/Triton. Next, phosphorylated AKWPKB is detected by an overnight incubation at 4° C. with first antibody (anti phospho Serine 473 Akt IHC, Cell Signalling) diluted 800-fold in PBS/Triton, containing 5% bovine serum albumin (BSA). […] The reaction is stopped by addition of 50 μl of 1 M SO4H2 and absorbance is read at 450 nm. […]

Where two headings read alike, the source gives them in different places.

Chain of Human recombinant GST-PI3Kγ (P48736 whole entry): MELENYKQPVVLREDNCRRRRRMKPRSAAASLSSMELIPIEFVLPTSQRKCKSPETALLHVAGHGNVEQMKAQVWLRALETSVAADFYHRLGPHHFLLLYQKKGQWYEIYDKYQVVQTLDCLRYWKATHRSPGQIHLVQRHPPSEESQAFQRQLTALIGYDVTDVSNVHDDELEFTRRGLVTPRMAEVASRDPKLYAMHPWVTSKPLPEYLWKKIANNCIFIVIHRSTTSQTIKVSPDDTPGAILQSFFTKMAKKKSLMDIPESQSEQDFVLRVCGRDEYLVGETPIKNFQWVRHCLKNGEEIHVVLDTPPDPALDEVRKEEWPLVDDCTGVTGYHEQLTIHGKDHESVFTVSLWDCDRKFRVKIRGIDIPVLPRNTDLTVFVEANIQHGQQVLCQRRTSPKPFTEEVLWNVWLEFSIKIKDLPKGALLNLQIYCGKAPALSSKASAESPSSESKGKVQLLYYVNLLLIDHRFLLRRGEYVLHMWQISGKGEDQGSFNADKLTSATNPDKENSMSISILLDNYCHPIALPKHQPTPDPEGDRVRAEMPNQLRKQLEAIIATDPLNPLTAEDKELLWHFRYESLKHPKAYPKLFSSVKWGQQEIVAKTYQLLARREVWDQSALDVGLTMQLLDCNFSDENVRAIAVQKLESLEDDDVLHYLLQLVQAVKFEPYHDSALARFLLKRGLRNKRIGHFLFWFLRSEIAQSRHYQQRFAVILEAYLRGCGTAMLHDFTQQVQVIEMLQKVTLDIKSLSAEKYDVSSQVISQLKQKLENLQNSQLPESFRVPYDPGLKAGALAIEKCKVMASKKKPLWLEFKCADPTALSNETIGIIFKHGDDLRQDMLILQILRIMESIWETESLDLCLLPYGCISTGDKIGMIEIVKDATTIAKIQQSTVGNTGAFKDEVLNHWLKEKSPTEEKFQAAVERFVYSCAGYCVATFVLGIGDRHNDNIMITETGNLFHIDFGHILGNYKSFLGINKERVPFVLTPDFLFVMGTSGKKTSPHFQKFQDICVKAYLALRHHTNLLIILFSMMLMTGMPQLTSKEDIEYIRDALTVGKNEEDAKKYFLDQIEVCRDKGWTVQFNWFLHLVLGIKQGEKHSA

Regarding `O=c1cc(N2CCOCC2)oc2c(-c3ccccc3)cccc12` [LY294002], in the experiment with Class I PI3-kinases (Fruman et al. 1998, read-out: IC50 values against each of these PI3-kinases), the half-inhibitory concentration (IC50) was 15 to 20 µM.

For the compound `O=C1NC(=NCc2ccccc2)S/C1=C\c1ccc2c(c1)OCO2` [Example 22, 5-Benzo[1,3]dioxol-5-ylmethylene-2-benzylimino-thiazolidin-4-one], the IC50 in experiment [1] is < 1.5 µM.

Take `O=C1N/C(=N\S(=O)(=O)c2ccccc2)S/C1=C\c1ccc2c(c1)OCO2` [Example 8, N-(5-Benzo[1,3]dioxol-5-ylmethylene-4-oxo-thiazolidin-2-ylidene)-benzenesulfonamide]: in experiment [2], the inhibition at 10 µM came to 100%.

With `CN=C1NC(=O)/C(=C/c2ccc3ncnc(N(C)C)c3c2)S1` [Example 26, 5-(4-Dimethylamino-quinazolin-6-ylmethylene)-2-methylimino-thiazolidin-4-one], the IC50 in experiment [1] was < 1 µM.

As for `COC(=O)c1sccc1S(=O)(=O)N=C1NC(=O)/C(=C/c2ccc3ncccc3c2)S1` [Example 16, 3-(4-Oxo-5-quinolin-6-ylmethylene-thiazolidin-2-ylidenesulfamoyl)-thiophene-2-carboxylic acid methyl ester], the IC50 in experiment [1] was < 1 µM.

Turning to `CS(=O)(=O)/N=C1\NC(=O)/C(=C/c2ccc3c(c2)OCO3)S1` [Example 10, N-(5-Benzo[1,3]dioxol-5-ylmethylene-4-oxo-thiazolidin-2-ylidene)-methanesulfonamide], in experiment [2], the inhibition at 10 µM was 80%.

`N#CN=C1NC(=O)/C(=C/c2ccc3nccnc3c2)S1` [Example 21, 4-Oxo-5-quinoxalin-6-ylmethylene-thiazolidin-2-ylidene-cyanamide]: the IC50 in experiment [1] is < 1 µM.

Consider `CO/N=C1\NC(=O)/C(=C/c2ccc3c(c2)OCO3)S1` [Example 20, 5-Benzo[1,3]dioxol-5-ylmethylene-thiazolidine-2,4-dione 2-(O-methyl-oxime)], for which the IC50 in experiment [1] was < 1 µM.

Regarding wortmannin, the IC50 in the experiment with Class I PI3-kinases (read-out: IC50 values against each of the various Class I PI3-kinases) was 0.001 to 0.01 µM.

The IC50 is the midpoint of a concentration-inhibition curve. For orientation: inhibition means the relative decrease from the control value, in per cent.
